# Values quoted from earlier work, collected in patent publication USH1286H, “Method for treating peripheral atherosclerotic disease employing a cholesterol lowering drug, an ACE inhibitor, or a combination thereof” (E. R. Squibb & Sons, Inc., priority 1990, dated 1994).
# Conditions: hypercholesterolemic patients; Costa et al., Am. J. Hyperten. 1988
compound,measurement,value
"C[C@H](CS)C(=O)N1CCC[C@H]1C(=O)O [captopril, 1-[(2S)-3-mercapto-2-methylpropionyl]-L-proline]",increase of HDL,27%
same,reduction of serum cholesterol,-18%
